# According to patent US8247211B2, “Glycopeptide antibiotics” (American Cyanamid Company, priority 2001, dated 2012):
# Numbered stars: 1 amine (or outer) side, 2 acyl side, 3 side chain; on linkers, the order of the positions; unused ones are H or OH. Square brackets hold non-standard residues; d marks the D form. Peptide text beside a SMILES is read from it. * marks the point of attachment. ξ: configuration not given here. X1 = N=C1NCC(C(O)C(N[*:1])C(=O)[*:2])N1C1OC(CO)C(O)C(O)C1O; ξEnduracididine(βξ-OH,4'ξ) = N=C1NCC(C(O)C(N)C(=O)O)N1; X2 = OCC1OC(OC2C(CO)OC(*)C(O)C2O)C(O)C(O)C1O; Cha = N[CH](CC1CCCCC1)C(=O)O
# Assays:
# Enterococcus sp. = assay: In vitro antibacterial evaluation: minimum inhibitory concentration (MIC), broth dilution method; format: cell-based
# Summary of the method: (§1)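 Inoculum: 5×10^5 CFU/mL. Range: 64-0.06 μg/mL. Medium: Muller-Hinton II […]; NCCLS M7-A2 broth dilution. Endpoint: lowest concentration inhibiting growth. Strains include methicillin-, penicillin- and/or vancomycin-resistant clinical isolates.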
# Escherichia coli [1] = assay: as above; format: cell-based
# Summary of the method: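 Broth dilution per NCCLS M7-A2 in Muller-Hinton II […], inoculum 5×10^5 CFU/mL, antibiotic tested over 64-0.06 μg/mL. MIC is taken as the lowest concentration that inhibits growth. Panel includes recent clinical isolates resistant to methicillin, penicillin and/or vancomycin.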
# Staphylococcus sp. = assay: as above; format: cell-based; conditions: 18 hours at 35° C.
# Summary of the method: as §1
# Streptococcus sp. = assay: as above; format: cell-based; conditions: 18 hours at 35° C.
# Summary of the method: as §1
# [2] = system: Staphylococcus aureus-SMITH (GC 4543); assay: Acute lethal infection in mice (ED50); format: in vivo; conditions: female CD-1 mice, intraperitoneal challenge, intravenous dose 30 min. after infection, 7 day survival ratios
# Summary of the method: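 Bacteria suspended in Trypticase Soy Broth or hog gastric mucin are injected intraperitoneally into female CD-1 mice at a dose killing untreated animals within 24-48 hr. Thirty minutes later, test agent is administered intravenously. Survival at day 7 is scored.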
# [3] = Anatomic pathology (heart and kidney histopathology) in mice; format: in vivo, CD-1 mice; conditions: 20 mg/kg intravenously daily for 9 days, microscopic histopathology on day 10
# Summary of the method: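 Histopathology on H&E-stained, paraffin-embedded sections, subjectively scored (slight, mild, moderate, marked, severe) relative to untreated controls. Dosing: glycopeptide antibiotics 20 mg/kg intravenously once daily ×9 days in 20-day-old CD-1 mice, n=5 per group including vehicle.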
# Escherichia coli [4] = assay: In vitro antibacterial evaluation: minimum inhibitory concentration (MIC), broth dilution method; format: cell-based; remark: listed apart in the source
# [5] = format: in vivo; conditions: mice, 20 mg/kg intravenously daily for 9 days, serum on day 10
# Protocol: 20-day-old CD-1 mice were divided into a vehicle control group (5 mice) and a treatment group (5 mice). Samples of glycopeptide antibiotics were administered at 20 mg/kg intravenously daily for 9 days. Animals were necropsied on day 10 Sera were analyzed for BUN (blood urea nitrogen), creatinine, AST (aspartic aminotransferase), and ALT (alanine aminotransferase) by routine, standard, automated methods using an Hitachi 747 chemistry analyzer.
smiles,measurement,setting,value
"N=C1NCC(C(O)C2NC(=O)C(Cc3ccc(OC4OC(CO)C(OC5OC(CO)C(O)C(O)C5O)C(O)C4O)cc3)NC(=O)C(CC3CCCCC3)NC(=O)CNC(=O)C(CO)NC(=O)C(C(O)C3CNC(=N)N3C3OC(CO)C(O)C(O)C3O)NC2=O)N1 (stereo not drawn) [Example 263, Cyclo[3-cyclohexylalanyl-O-(4-O-hexopyranosylhexopyranosyl)tyrosyl-3-(2-iminoimidazolidin-4-yl)seryl-3-(3-hexopyranosyl-2-iminoimidazolidin-4-yl)serylserylglycyl]] (cyclo(G[Cha]Y(X2)[ξEnduracididine(βξ-OH,4'ξ)][X1]S); configuration not given here)",MIC Enterococcus avium (GC 4558),Enterococcus sp.; Enterococcus avium (GC 4558),>64 µg/mL
same,MIC Enterococcus faecalis (ATCC 29212),Enterococcus sp.; Enterococcus faecalis (ATCC 29212),>64 µg/mL
same,MIC Enterococcus faecalis (GC 2242),"Enterococcus sp.; Enterococcus faecalis (GC 2242), 18 hours at 35° C.",>64 µg/mL
same,MIC Enterococcus faecalis (GC 4552),"Enterococcus sp.; Enterococcus faecalis (GC 4552), 18 hours at 35° C.",>64 µg/mL
same,MIC Enterococcus faecalis (GC 4553),Enterococcus sp.; Enterococcus faecalis (GC 4553),>64 µg/mL
same,MIC Enterococcus faecalis (GC 4554),Enterococcus sp.; Enterococcus faecalis (GC 4554),>64 µg/mL
same,MIC Enterococcus faecium (GC 2243),Enterococcus sp.; Enterococcus faecium (GC 2243),>64 µg/mL
same,MIC Enterococcus faecium (GC 4556),Enterococcus sp.; Enterococcus faecium (GC 4556),>64 µg/mL
same,MIC Enterococcus faecium (GC 4557),Enterococcus sp.; Enterococcus faecium (GC 4557),32 µg/mL
same,MIC Escherichia coli (GC 4559),Escherichia coli [1]; Escherichia coli (GC 4559),>64 µg/mL
same,MIC Escherichia coli (GC 4560),Escherichia coli [1]; Escherichia coli (GC 4560),16 µg/mL
same,MIC Coagulase Negative Staphylococcus (GC 4547),Staphylococcus sp.,64 µg/mL
same,MIC Coagulase Negative Staphylococcus (GC 4547),Staphylococcus sp.; broth dilution,64 µg/mL
same,MIC Coagulase Negative Staphylococcus (GC 4548),Staphylococcus sp.,32 µg/mL
same,MIC Coagulase Negative Staphylococcus (GC 4548),Staphylococcus sp.; broth dilution,32 µg/mL
same,MIC Coagulase Negative Staphylococcus (GC 4549),Staphylococcus sp.,16 µg/mL
same,MIC Coagulase Negative Staphylococcus (GC 4549),Staphylococcus sp.; broth dilution,16 µg/mL
same,MIC Coagulase Negative Staphylococcus (GC 4551),Staphylococcus sp.,64 µg/mL
same,MIC Coagulase Negative Staphylococcus (GC 4551),Staphylococcus sp.; broth dilution,64 µg/mL
same,MIC Staphylococcus aureus (ATCC 29213),Staphylococcus sp.,64 µg/mL
same,MIC Staphylococcus aureus (ATCC 29213),Staphylococcus sp.; broth dilution,64 µg/mL
same,MIC Staphylococcus aureus (GC 1131),Staphylococcus sp.,64 µg/mL
same,MIC Staphylococcus aureus (GC 1131),Staphylococcus sp.; broth dilution,64 µg/mL
same,MIC Staphylococcus aureus (GC 4541),Staphylococcus sp.,64 µg/mL
same,MIC Staphylococcus aureus (GC 4541),Staphylococcus sp.; broth dilution,64 µg/mL
same,MIC Staphylococcus aureus (GC 4542),Staphylococcus sp.,64 µg/mL
same,MIC Staphylococcus aureus (GC 4542),Staphylococcus sp.; broth dilution,64 µg/mL
same,MIC Staphylococcus aureus (GC 4544),Staphylococcus sp.,>64 µg/mL
same,MIC Staphylococcus aureus (GC 4544),Staphylococcus sp.; broth dilution,>64 µg/mL
same,MIC Staphylococcus aureus (GC 4545),Staphylococcus sp.,64 µg/mL
same,MIC Staphylococcus aureus (GC 4545),Staphylococcus sp.; broth dilution,64 µg/mL
same,MIC Staphylococcus aureus-SMITH (GC 4543),Staphylococcus sp.,32 µg/mL
same,MIC Staphylococcus aureus-SMITH (GC 4543),Staphylococcus sp.; broth dilution,32 µg/mL
same,MIC Staphylococcus haemolyticus (GC 4546),Staphylococcus sp.,32 µg/mL
same,MIC Staphylococcus haemolyticus (GC 4546),Staphylococcus sp.; broth dilution,32 µg/mL
same,MIC Streptococcus agalactiae (GC 4564),Streptococcus sp.; Streptococcus agalactiae (GC 4564),32 µg/mL
same,MIC Streptococcus pyogenes (ID-3187),Streptococcus sp.; Streptococcus pyogenes (ID-3187),32 µg/mL
same,"median effective dose (ED50), Staphylococcus aureus-SMITH (GC 4543)",[2],>8
same,"Anatomical Pathology (Day 10), Heart",[3],+
same,"Anatomical Pathology (Day 10), Kidney",[3],++
same,MIC Escherichia coli (ATCC 25922),Escherichia coli [4],>64 µg/mL
"CC(c1ccccc1)C1NC(=O)CNC(=O)C(CO)NC(=O)C(CC2CNC(=N)N2C2OC(CO)C(O)C(O)C2O)NC(=O)C(CC2CNC(=N)N2)NC(=O)C(Cc2ccc(OC3OC(CO)C(OC4OC(CO)C(O)C(O)C4O)C(O)C3O)cc2)NC1=O (stereo not drawn) [Example 277a, Cyclo[3-(2-iminoimidazolidin-4-yl)alanyl-3-(3-hexopyranosyl-2-iminoimidazolidin-4-yl)-alanylserylglycyl-β-methylphenylalanyl-O-(4-O-hexopyranosylhexopyranosyl]tyrosyl]]","median effective dose (ED50), Staphylococcus aureus-SMITH (GC 4543)",[2],>8
same,"Clinical Chemistry (Day 10) % of Control, BUN",[5],+110%
same,"Anatomical Pathology (Day 10), Heart",[3],0
same,"Anatomical Pathology (Day 10), Kidney",[3],++
CC(C)CC(=O)OCC1OC(OC2C(CO)OC(Oc3ccc(CC4NC(=O)C(C(C)c5ccccc5)NC(=O)CNC(=O)C(CO)NC(=O)C(CC5CNC(=N)N5C5OC(CO)C(O)C(O)C5O)NC(=O)C(CC5CNC(=N)N5)NC4=O)cc3)C(O)C2O)C(O)C(O)C1O (stereo not shown) [Example 277c],"Clinical Chemistry (Day 10) % of Control, AST",[5],+253%
